Where “and” joins values, the source holds several entries; their conditions need not be identical. Equal values may be shown once. No end group written: not given here.
What was measured:
Frog MOR (rpMOR) = Frog MOR (rpMOR) (Lithobates pipiens, UniProt Q7T069); experiment: cell-based; parameters: species or system Rana pipiens
Frog DOR = type: cell-based, Rana pipiens; conditions: Table 2, HEK 293T cells; for EC50: NA = not active
[1] = system: h-rpMOR-E2h (h-rpMOR-EL2h); experiment: Inhibition of isoproterenol-stimulated cAMP response, chimera h-rpMOR-E2h; type: cell-based, human / Rana pipiens; conditions: for EC50 / log EC50 ±SEM: Table 3, h-rpMOR-E2h, HEK 293T cells
h-rpMOR-wt = experiment: Competition binding with radiolabeled diprenorphine, h-rpMOR-wt; parameters: species or system human / Rana pipiens; conditions: Table 3, [3H]-diprenorphine competition
[2] = system: h-rpMOR-E3h (h-rpMOR-EL3h); experiment: Inhibition of isoproterenol-stimulated cAMP response, chimera h-rpMOR-E3h; type: cell-based, human / Rana pipiens; conditions: for EC50 / log EC50 ±SEM: Table 3, h-rpMOR-E3h, HEK 293T cells
[3] = molecular target: h-rpMOR-E2h (h-rpMOR EL2h); experiment: Competition binding with radiolabeled diprenorphine, h-rpMOR-E2h; parameters: species or system human / Rana pipiens; conditions: Table 3, [3H]-diprenorphine competition
rpMOR = experiment: Competition binding with radiolabeled diprenorphine, rpMOR; parameters: species or system Rana pipiens; conditions: Table 3, [3H]-diprenorphine competition
Frog KOR = Frog KOR (Lithobates pipiens, UniProt B0JCV9); experiment: Inhibition of isoproterenol-induced cAMP production; type: cell-based, Rana pipiens
Frog KOR, sequence (B0JCV9 1-390): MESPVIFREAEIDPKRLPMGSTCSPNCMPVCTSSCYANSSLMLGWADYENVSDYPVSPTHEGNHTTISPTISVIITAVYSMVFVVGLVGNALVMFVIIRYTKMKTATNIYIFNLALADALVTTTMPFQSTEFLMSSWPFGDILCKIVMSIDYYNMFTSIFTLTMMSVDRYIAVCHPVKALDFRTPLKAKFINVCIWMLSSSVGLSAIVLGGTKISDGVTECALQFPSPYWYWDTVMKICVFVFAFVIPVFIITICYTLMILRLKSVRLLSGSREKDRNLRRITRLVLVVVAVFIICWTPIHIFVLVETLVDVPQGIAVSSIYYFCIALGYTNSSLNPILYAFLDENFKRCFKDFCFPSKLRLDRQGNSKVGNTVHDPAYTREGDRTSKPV

h-rpMOR-E3h = experiment: Competition binding with radiolabeled diprenorphine, h-rpMOR-E3h; parameters: species or system human / Rana pipiens; conditions: Table 3, [3H]-diprenorphine competition
[4] = system: h-rpMOR-wt (rpMOR with humanized N-terminus); experiment: Inhibition of isoproterenol-stimulated cAMP response, chimera h-rpMOR-wt; type: cell-based, human / Rana pipiens; conditions: Table 3, HEK 293T cells
three tested frog ORs = experiment: cAMP inhibition, the three tested frog ORs; type: cell-based, Rana pipiens; conditions: frog KOR, MOR, DOR; cAMP assay
[5] = system: ORs in the brains and spinal cord; conditions: Rana pipiens tissue; cited from earlier work
Human DOR [6] = molecular target: Human DOR (Homo sapiens, UniProt P41143); experiment: cell-based
Human DOR, sequence (P41143 whole entry): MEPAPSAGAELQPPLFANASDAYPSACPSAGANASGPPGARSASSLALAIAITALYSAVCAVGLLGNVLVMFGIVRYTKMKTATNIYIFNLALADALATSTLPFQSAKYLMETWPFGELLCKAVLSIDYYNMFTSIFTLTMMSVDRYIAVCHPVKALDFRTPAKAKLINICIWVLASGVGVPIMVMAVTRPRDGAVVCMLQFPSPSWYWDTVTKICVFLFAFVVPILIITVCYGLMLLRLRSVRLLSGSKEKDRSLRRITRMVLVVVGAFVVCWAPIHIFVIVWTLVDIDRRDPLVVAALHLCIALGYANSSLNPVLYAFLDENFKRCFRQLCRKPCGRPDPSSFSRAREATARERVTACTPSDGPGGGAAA

human DOR [7] = conditions: human (but not murine) DOR; cited from earlier work
Human KOR = Human KOR (Homo sapiens, UniProt P41145); experiment: cell-based
Human KOR, sequence (P41145 whole entry): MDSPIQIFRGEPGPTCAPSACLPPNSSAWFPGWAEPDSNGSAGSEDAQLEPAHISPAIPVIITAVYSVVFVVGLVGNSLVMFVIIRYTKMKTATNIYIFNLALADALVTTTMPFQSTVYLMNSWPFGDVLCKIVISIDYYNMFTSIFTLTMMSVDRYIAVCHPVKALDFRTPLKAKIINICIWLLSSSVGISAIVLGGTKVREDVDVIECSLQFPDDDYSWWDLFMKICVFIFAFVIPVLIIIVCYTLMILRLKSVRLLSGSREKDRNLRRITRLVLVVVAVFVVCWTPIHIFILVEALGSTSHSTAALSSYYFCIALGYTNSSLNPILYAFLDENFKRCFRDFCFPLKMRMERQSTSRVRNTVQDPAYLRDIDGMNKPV

[8] = system: rpDOR mutants Met287Leu, Asn294Asp and Tyr296Leu; experiment: Functional studies, rpDOR mutants Met287Leu, Asn294Asp and Tyr296Leu; type: cell-based, Rana pipiens; conditions: data not shown
human DOR (Leu300Trp) = experiment: Inhibition of cAMP response, hDOR Leu300Trp mutant; type: cell-based; conditions: hDOR Leu300Trp vs hDOR
rpDOR Trp301Leu (7.35) = experiment: Functional and binding studies, rpDOR mutant Trp301Leu; type: cell-based, Rana pipiens
[9] = relative to chimera with humanized N-terminus only

Frog MOR (rpMOR), sequence (Q7T069 1-388): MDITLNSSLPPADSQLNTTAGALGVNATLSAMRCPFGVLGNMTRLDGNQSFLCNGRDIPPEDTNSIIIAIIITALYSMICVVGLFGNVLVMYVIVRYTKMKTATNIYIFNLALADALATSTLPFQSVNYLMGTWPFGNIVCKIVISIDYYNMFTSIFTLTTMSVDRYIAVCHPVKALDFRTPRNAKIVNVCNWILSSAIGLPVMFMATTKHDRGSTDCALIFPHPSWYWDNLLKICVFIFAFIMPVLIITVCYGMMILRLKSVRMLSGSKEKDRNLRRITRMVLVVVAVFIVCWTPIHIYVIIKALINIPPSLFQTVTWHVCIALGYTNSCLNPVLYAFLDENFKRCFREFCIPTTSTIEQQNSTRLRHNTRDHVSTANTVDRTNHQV

## CC(C)C[C@@H](NC(=O)[C@H](Cc1ccccc1)NC(=O)CNC(=O)[C@@H](C)NC(=O)[C@@H](N)Cc1ccc(O)cc1)C(=O)O [DADLE, [D-Ala^2,D-Leu^5]-enkephalin]
Frog MOR (rpMOR); EC50
  EC50: 480 nM
Frog MOR (rpMOR); log EC50 ±SEM
  EC50: 501 nM
Frog DOR
  log EC50 ±SEM: −6.5±0.06 logM
  EC50: 353 nM

## C[C@@H](NC(=O)[C@@H](N)Cc1ccc(O)cc1)C(=O)NCC(=O)N(C)[C@@H](Cc1ccccc1)C(=O)NCCO [DAMGO, [D-Ala^2,N-MePhe^4,Gly-ol]-enkephalin]
[1]
  EC50: 81 nM
  log EC50 ±SEM: −7.1 ± 0.07 M
h-rpMOR-wt
  Ki: 100 nM
Frog MOR (rpMOR); EC50
  EC50: 1500 nM and 1900 nM
Frog MOR (rpMOR); log EC50 ±SEM
  EC50: 1580 nM and 2000 nM
[2]
  EC50: 22 nM
  log EC50 ±SEM: −7.7 ± 0.07 M
[3]
  Ki: 80 nM
rpMOR
  Ki: 160 nM
Frog KOR; EC50, Table 2, HEK 293T cells, NA = not active
  EC50: 2400 nM
Frog KOR; log EC50 ±SEM, Table 2, HEK 293T cells
  EC50: 2510 nM
h-rpMOR-E3h
  Ki: 120 nM
[4]
  EC50: 96 nM
  log EC50 ±SEM: −7.0 ± 0.08 M

## CC(C)[C@H](NC(=O)[C@H](CC(=O)O)NC(=O)[C@H](Cc1ccccc1)NC(=O)[C@@H](C)NC(=O)[C@@H](N)Cc1ccc(O)cc1)C(=O)N[C@H](C(=O)NCC(N)=O)C(C)C [Deltorphin C, Tyr-D-Ala-Phe-Asp-Val-Val-Gly-NH2]
Three tested frog ORs
  agonist activity at the three tested frog ORs: inactive

## C[C@@H](NC(=O)[C@@H](N)Cc1ccc(O)cc1)C(=O)N[C@@H](Cc1ccccc1)C(=O)NCC(=O)N[C@@H](Cc1ccc(O)cc1)C(=O)N1CCC[C@H]1C(=O)N[C@@H](CO)C(N)=O [Dermorphin]
[5]
  affinities to ORs in the brains and spinal cord: 30 to 80 µM
[1]
  EC50: 40 nM
  log EC50 ±SEM: −7.4 ± 0.07 M
[1]; [9]
  enhancement of receptor activation by humanization of EL2: ~ 10 fold
[2]
  EC50: 130 nM
  log EC50 ±SEM: −6.9 ± 0.1 M
[2]; [9]
  enhancement of receptor activation by humanization of EL3: ~ 2 fold
[3]
  Ki: 112 nM
rpMOR
  Ki: 1640 nM
[4]
  EC50: 230 nM
  log EC50 ±SEM: −6.7 ± 0.08 M

## CC(C)C[C@H](NC(=O)[C@H](Cc1ccccc1)NC(=O)CNC(=O)CNC(=O)[C@@H](N)Cc1ccc(O)cc1)C(=O)N[C@@H](CCCN=C(N)N)C(=O)N[C@@H](CCCN=C(N)N)C(=O)N[C@@H](CCC(N)=O)C(=O)N[C@@H](Cc1ccccc1)C(=O)N[C@@H](CCCCN)C(=O)N[C@H](C(=O)N[C@H](C(=O)N[C@H](C(=O)O)[C@@H](C)O)C(C)C)C(C)C [Dynorphin B]
Frog MOR (rpMOR); EC50
  EC50: 5200 nM
Frog MOR (rpMOR); log EC50 ±SEM
  EC50: 5010 nM
Frog KOR; EC50
  EC50: 170 nM
Frog KOR; log EC50 ±SEM
  EC50: 158 nM
Human DOR [6]; EC50
  EC50: 360 nM
Human DOR [6]; log EC50 ±SEM
  EC50: 398 nM

## NC(=O)[C@H](Cc1ccccc1)NC(=O)[C@H](Cc1c[nH]c2ccccc12)NC(=O)[C@@H]1CCCN1C(=O)[C@@H](N)Cc1ccc(O)cc1 [Endomorphin 1]
[1]
  EC50: 95 nM
Frog MOR (rpMOR); EC50
  EC50: 381 nM and 360 nM
Frog MOR (rpMOR); log EC50 ±SEM
  EC50: 398 nM and 316 nM
[4]
  EC50: 43 nM
  log EC50 ±SEM: −7.4 ± 0.07 M

## NC(=O)[C@H](Cc1ccccc1)NC(=O)[C@H](Cc1ccccc1)NC(=O)[C@@H]1CCCN1C(=O)[C@@H](N)Cc1ccc(O)cc1 [Endomorphin 2]
[1]
  EC50: 190 nM
  log EC50 ±SEM: −6.7 ± 0.32 M
Frog MOR (rpMOR); EC50
  EC50: 782 nM and 920 nM
Frog MOR (rpMOR); log EC50 ±SEM
  EC50: 794 nM and 1000 nM
[2]
  EC50: 32 nM
[4]
  EC50: 93 nM

## DIPP-NH2
Human DOR [7]
  agonist activity: weak partial agonist activity

## YGGFIRKPDKYKFLNA [Xendorphin]
Frog KOR
  activity at frog and human KORs compared: equally active

## YGGFLRKYPK [α-Neoendorphin]
Human KOR; EC50
  EC50: 11 nM
Human KOR; log EC50 ±SEM
  EC50: 10 nM
Frog DOR
  log EC50 ±SEM: −5.8±0.08 logM
  EC50: 1600 nM
Frog KOR
  fold less potent at the frog KOR: 10 fold
Frog KOR; EC50
  EC50: 78 nM
Frog KOR; log EC50 ±SEM
  EC50: 79.4 nM
Human DOR [6]; EC50
  EC50: 1600 nM
Human DOR [6]; log EC50 ±SEM
  EC50: 1580 nM

## deltorphin
[5]
  affinities to ORs in the brains and spinal cord: 30 to 80 µM
[8]
  response of the mutants: did not respond
Human DOR (Leu300Trp)
  decrease of potency by the L300W mutation: ~2000 fold
rpDOR Trp301Leu (7.35)
  response of the mutant compared to rpDOR: substantially increased potency and affinity

Reference: article PMC4507497 (Chemistry & biology, 2015)
